The values below are quoted from earlier work in paper PMC12424150 (Drug Delivery, 2025).

For series [1] the following is noted: ref Dhillon [2018].
On the set-up of series [2]: method as in Wharton et al. [2023]; Lingvay et al. [2024]. The settings on record: ref Wharton et al. [2023]; Lingvay et al. [2024].

Consider `CC[C@H](C)[C@H](NC(=O)[C@H](Cc1ccccc1)NC(=O)[C@H](CCC(=O)O)NC(=O)[C@H](CCCCNC(=O)COCCOCCNC(=O)COCCOCCNC(=O)CC[C@H](NC(=O)CCCCCCCCCCCCCCCCC(=O)O)C(=O)O)NC(=O)[C@H](C)NC(=O)[C@H](C)NC(=O)[C@H](CCC(N)=O)NC(=O)CNC(=O)[C@H](CCC(=O)O)NC(=O)[C@H](CC(C)C)NC(=O)[C@H](Cc1ccc(O)cc1)NC(=O)[C@H](CO)NC(=O)[C@H](CO)NC(=O)[C@@H](NC(=O)[C@H](CC(=O)O)NC(=O)[C@H](CO)NC(=O)[C@@H](NC(=O)[C@H](Cc1ccccc1)NC(=O)[C@@H](NC(=O)CNC(=O)[C@H](CCC(=O)O)NC(=O)C(C)(C)NC(=O)[C@@H](N)Cc1cnc[nH]1)[C@@H](C)O)[C@@H](C)O)C(C)C)C(=O)N[C@@H](C)C(=O)N[C@@H](Cc1c[nH]c2ccccc12)C(=O)N[C@@H](CC(C)C)C(=O)N[C@H](C(=O)N[C@@H](CCCNC(=N)N)C(=O)NCC(=O)N[C@@H](CCCNC(=N)N)C(=O)NCC(=O)O)C(C)C` [semaglutide], for which the half-life in humans in series [1] is 165 to 183 h. For the compound Glucagon-like peptide-1 [GLP-1], the average weight loss result in series [2] was “up to 15%”.
